One compound from BindingDB's records for doi:10.1021/acs.biochem.6b00943 (University of Maryland, 2017) can be followed below.

The target in the assay is Reverse transcriptase protein (Human immunodeficiency virus 1, UniProt Q9WJQ1). Kind of assay: HIV-1 RT Inhibitory Assay. The following applies: 25 °C. The method, then:
The final pH of the reactions was 7.7. After extension for 3 min, the reactions were stopped by adding 12.5 μL of 2× gel loading buffer and the samples were resolved in a 16% denaturing polyacrylamide−7 M urea gel.

Structures are written as SMILES. Where “and” joins values, the source holds several entries; their conditions need not be identical. Equal entries are not always repeated.

Broadly, the IC50 is the concentration needed to halve the response being measured. A high value points to lower potency. As for `Cc1ccnc2c1NC(=O)c1cccnc1N2C1CC1` [BI-RG-587], the IC50 was 16 µM and 4.3 µM.
